The values that follow are results of earlier work, collected in publication PMC12291913 (Antibiotics, 2025).

Values after ≈ are worked out from the molar mass of the structure shown. Bounds are passed on as bounds.

Common to all, as to settings: drug alone, previous study ref 17; cited from earlier work
Data set [1] has as its system M. avium clinical isolate Koav 25 (WT).
The subject of data set [2] is M. avium clinical isolate Koav 13 (GyrA Asp95Gly).
Data set [3] has as its system M. avium clinical isolate Koav 15 (WT).
For data set [4], the system named is M. avium clinical isolate Koav 11 (GyrA Asp95Tyr).
Data set [5] has as its system M. avium clinical isolate Cl-A-2 (GyrA Asp95Tyr).
For data set [6], the system named is M. avium clinical isolate Koav 20 (WT).
Data set [7] relates to M. avium clinical isolate Koav 19 (WT).
The subject of data set [8] is M. avium clinical isolate Koav 3 (GyrA Asp95Gly).
The subject of data set [9] is M. avium clinical isolate Koav 2 (WT).
The test system of data set [10] is M. avium clinical isolate Koav 21 (WT).
The subject of data set [11] is M. avium clinical isolate Koav 1 (WT).

A word on the MIC: it is the lowest concentration that inhibits growth of the organism. As for `C[C@H]1COc2c(N3CCN(C)CC3)c(F)cc3c(=O)c(C(=O)O)cn1c23` [LVX, levofloxacin], the MIC is 4 µg/mL (≈ 11.1 µM) in data set [1]; 128 µg/mL (≈ 354 µM) in data set [2]; 4 µg/mL (≈ 11.1 µM) in data set [3]; 8 µg/mL (≈ 22.1 µM) in data set [4]; 64 µg/mL (≈ 177 µM) in data set [5]; under 0.5 µg/mL in data set [6]. The MIC is on record as 2 µg/mL (≈ 5.53 µM) in data set [7]; 64 µg/mL (≈ 177 µM) in data set [8]; 2 µg/mL (≈ 5.53 µM) in data set [9]; 4 µg/mL (≈ 11.1 µM) in data set [10]; under 0.5 µg/mL in [11].
